Assay results as given in patent publication US20230190863A1, “PHARMACEUTICAL COMPOSITIONS AND ANTI-VIRAL USES THEREOF” (priority 2020, published 2023).
Where “and” joins values, the source holds several entries; their conditions need not be identical. Equal entries are not always repeated. Where two headings read alike, the source gives them in different places. Ends that are not written are not given here.

Key:
[1] = test system: Influenza A virus (A / WSN /33); test: microbe, parasite or virus in culture; conditions: MDCK-II, 24 h
MDCK-II cells = conditions: for Absorbance values - cytotoxicity at 24 h: MTT 570 nm; for Absorbance values - cytotoxicity at 24 h / Percentages of cytotoxicity at 24 h: replicates
[2] = test system: Influenza A virus (A / WSN /33)
Vero cells = conditions: for Absorbance values - cytotoxicity at 24 h / Percentages of cytotoxicity at 24 h / cytotoxicity (in words): Vero cells; for Absorbance values - cytotoxicity at 24 h: MTT 570 nm; for Absorbance values - cytotoxicity at 24 h / Percentages of cytotoxicity at 24 h: replicates
Method: (§1) Antiviral activity was determined at 24 h using an immunofluorescence-based assay. Cytotoxicity was determined using an MTT assay on uninfected cells treated with the same concentrations of peptide.
(§2) Virus and peptide were left on the cells for the entire duration of the experiment (24 h).
(§3) Either immediately after infection, or 2 h after infection, 50µl of treatment from the dilution plate were transferred to the cells in each plate (infectivity and cytotoxicity). […] 50 µl of media without diluent were added to the cytotoxicity plate instead of virus. Both plates were incubated at 37° C., 5% CO2 for 24 h.
(§4) The cytotoxicity plate was treated with MTT to determine cell viability.
(§5) Cytotoxicity was detected by MTT assay following standard protocols and techniques. Briefly, the MTT reagent (Sigma, M5655) was added to the cells for 2 h at 37° C., 5% CO2, after which the media was removed and the precipitate solubilized with a mixture of 1: 1 Isopropanol: DMSO for 20 minutes. The supernatant was transferred to a clean plate and signal read at 570 nm.

SARS-CoV2 [3] = test system: SARS-CoV2
SARS-CoV2 [4] = test: microbe, parasite or virus in culture; conditions: Severe acute respiratory syndrome coronavirus 2, Vero, 24 h
in vitro [5] = conditions: dog, MTT
[6] = Preliminary safety in pilot studies using human subjects; type: in vivo
in vitro [7] = conditions: African green monkey
Method: as §1, §2, §3, §4, §5

SARS-CoV-2 = test: Clinical study of INS peptide (GAMMORA) in patients with moderate to severe COVID-19; type: in vivo, human; conditions: of 15 treated, 40 mg/day SC for 9 days plus standard of care (Atripla)
[8] = uninfected Vero cells, MTT, 24 h

With `O=C(Nc1ccc([N+](=O)[O-])cc1Cl)c1cc(Cl)ccc1O` [Niclosamide, reference compound] the EC50 [1] was 0.61 µM, the EC90 [1] was 3.06 µM and the “Absorbance values - cytotoxicity at 24 h” value (MDCK-II cells; 0 µM) was 0.1646 and 0.1811. The “Percentages of cytotoxicity at 24 h” value (MDCK-II cells; 0 µM) was 16.58% and 8.22%, the “Absorbance values - cytotoxicity at 24 h” value (MDCK-II cells; 0.01 µM) was 0.2048 and the “Percentages of cytotoxicity at 24 h” value (MDCK-II cells; 0.01 µM) was -3.79%. The “Absorbance values - cytotoxicity at 24 h” value (MDCK-II cells; 0.04 µM) was 0.2247 and 0.2292, the “Percentages of cytotoxicity at 24 h” value (MDCK-II cells; 0.04 µM) was -13.87% and -16.15% and the “Absorbance values - cytotoxicity at 24 h” value (MDCK-II cells; 0.12 µM) was 0.213 and 0.2407. For the same molecule, the “Percentages of cytotoxicity at 24 h” value (MDCK-II cells; 0.12 µM) was -7.94% and -21.98%, the “Absorbance values - cytotoxicity at 24 h” value (MDCK-II cells; 0.37 µM) was 0.2429 and 0.2319 and the “Percentages of cytotoxicity at 24 h” value (MDCK-II cells; 0.37 µM) was -23.1% and -17.52%. For the same molecule, the “Absorbance values - cytotoxicity at 24 h” value (MDCK-II cells; 1.11 µM) was 0.227 and 0.2465, the “Percentages of cytotoxicity at 24 h” value (MDCK-II cells; 1.11 µM) was -15.04% and -24.92% and the “Absorbance values - cytotoxicity at 24 h” value (MDCK-II cells; 3.33 µM) was 0.2005 and 0.1965. The “Percentages of cytotoxicity at 24 h” value (MDCK-II cells; 3.33 µM) was -1.61% and 0.42%, the “Absorbance values - cytotoxicity at 24 h” value (MDCK-II cells; 10 µM) was 0.107 and 0.1166 and the “Percentages of cytotoxicity at 24 h” value (MDCK-II cells; 10 µM) was 45.77% and 40.91%. For the same molecule, the “SI50 (=TC50/EC50)” value [2] was 16.84 and the “SI90 (=TC90/EC90)” value [2] was 4.19.

In the case of `CCC(CC)COC(=O)[C@H](C)N[P@](=O)(OC[C@H]1O[C@@](C#N)(c2ccc3c(N)ncnn23)[C@H](O)[C@@H]1O)Oc1ccccc1` [Remdesivir, reference compound], the “Absorbance values - cytotoxicity at 24 h” value (Vero cells; 0.01 uM) is reported as 0.1378 and 0.1381, the “Absorbance values - cytotoxicity at 24 h” value (Vero cells; 0.03 uM) is reported as 0.147 and 0.1423 and the “Absorbance values - cytotoxicity at 24 h” value (Vero cells; 0.08 uM) is reported as 0.1483 and 0.1462. For the same molecule, the “Absorbance values - cytotoxicity at 24 h” value (Vero cells; 0.25 uM) was 0.1554 and 0.1531, the “Absorbance values - cytotoxicity at 24 h” value (Vero cells; 0.74 uM) was 0.1606 and 0.1568 and the “Absorbance values - cytotoxicity at 24 h” value (Vero cells; 2.22 uM) was 0.1599 and 0.1541. For the same molecule, the “Absorbance values - cytotoxicity at 24 h” value (Vero cells; 6.67 uM) was 0.1198 and 0.1127, the “Absorbance values - cytotoxicity at 24 h” value (Vero cells; 20 uM) was 0.1234 and 0.1247 and the EC99.9 (SARS-CoV2 [3]) was 4.4 µM. It also gave an EC50 (SARS-CoV2 [4]) of 1.28 µM and an EC90 (SARS-CoV2 [4]) of 3.9 µM.

For WTAVQMAVFIHNFKRK [Codivir], the “Absorbance values - cytotoxicity at 24 h” value (Vero cells; 0.05 uM) was 0.1161 and 0.1456 and 0.1448 and 0.1447 and 0.1351, the “Percentages of cytotoxicity at 24 h” value (Vero cells; 0.05 uM) was 4.24% and -20.09% and -19.43% and -19.35% and -9.12% and -11.43% and the “Absorbance values - cytotoxicity at 24 h” value (Vero cells; 0.15 uM) was 0.1361 and 0.143 and 0.1487 and 0.1479 and 0.1455 and 0.1446. For the same molecule, the “Percentages of cytotoxicity at 24 h” value (Vero cells; 0.15 uM) was -12.26% and -17.95% and -22.65% and -21.99% and -20.01% and -19.27%, the “Absorbance values - cytotoxicity at 24 h” value (Vero cells; 0.46 uM) was 0.1454 and 0.1447 and 0.1452 and 0.1433 and 0.1468 and 0.1493 and the “Percentages of cytotoxicity at 24 h” value (Vero cells; 0.46 uM) was -19.93% and -19.35% and -19.76% and -18.20% and -21.08% and -23.15%. For the same molecule, the “Absorbance values - cytotoxicity at 24 h” value (Vero cells; 4.17 uM) was 0.1306 and 0.1426 and 0.1477 and 0.1432 and 0.1433 and 0.1556, the “Percentages of cytotoxicity at 24 h” value (Vero cells; 4.17 uM) was -7.72% and -17.62% and -21.83% and -18.12% and -18.20% and -28.34% and the “Absorbance values - cytotoxicity at 24 h” value (Vero cells; 12.50 uM) was 0.1196 and 0.1315 and 0.1325 and 0.1324 and 0.1314 and 0.1395. The “Percentages of cytotoxicity at 24 h” value (Vero cells; 12.50 uM) was 1.35% and -8.46% and -9.29% and -9.21% and -8.38% and -15.06%, the “Absorbance values - cytotoxicity at 24 h” value (Vero cells; 25.00 uM) was 0.0691 and 0.075 and 0.0733 and 0.0763 and 0.0762 and 0.0822 and the “Percentages of cytotoxicity at 24 h” value (Vero cells; 25.00 uM) was 43.00% and 38.14% and 39.54% and 37.07% and 37.15% and 32.20%. The “Absorbance values - cytotoxicity at 24 h” value (Vero cells; 75.00 uM) was 0.0407 and 0.0403 (2×) and 0.0389 and 0.0414 and 0.0421, the “Percentages of cytotoxicity at 24 h” value (Vero cells; 75.00 uM) was 66.433% and 66.76% (2×) and 67.91% and 65.85% and 65.27% and the “cytotoxicity (in words)” value (Vero cells; at concentrations giving 90% inhibition of infectivity) was “minimal cytotoxicity”. For the same molecule, the “cytotoxicity (in words)” value (Vero cells; highest concentrations tested) was “Some cytotoxicity”, the TC90 (Vero cells; [8]) was 143.6 µM and the TC99.9 (Vero cells; [8]) was 185.9 µM. It also gave a CC50 at 24 h (in vitro [5]; TC50, text, MDCK-II cells) of ~50 µM, a CC50 at 24 h (in vitro [5]; uninfected MDCK-II cells, TC50, post-infection row) of 51 µM and a CC50 at 24 h (in vitro [5]; uninfected MDCK-II cells, TC50, with infection row) of 49.2 µM. The “Absorbance values - cytotoxicity at 24 h” value (MDCK-II cells; 0.05 µM) was 0.0985 and 0.1183 and 0.1389 and 0.1493 and 0.1468 and 0.1612, the “Absorbance values - cytotoxicity at 24 h” value (MDCK-II cells; 0.15 µM) was 0.1552 and 0.1707 and 0.1789 and 0.1965 and 0.1896 and 0.2019 and the “Absorbance values - cytotoxicity at 24 h” value (MDCK-II cells; 0.46 µM) was 0.1522 and 0.1679 and 0.2104 and 0.2062 and 0.1922 and 0.1978. The “Absorbance values - cytotoxicity at 24 h” value (MDCK-II cells; 4.17 µM) was 0.2071 and 0.1982 and 0.2203 and 0.2153 and 0.2027 and 0.2054, the “Absorbance values - cytotoxicity at 24 h” value (MDCK-II cells; 12.50 µM) was 0.183 and 0.2158 and 0.2057 and 0.2165 and 0.2045 and 0.2113 and the “Absorbance values - cytotoxicity at 24 h” value (MDCK-II cells; 25.00 µM) was 0.1794 and 0.1713 and 0.1708 and 0.1681 and 0.1845 and 0.1841. The “Absorbance values - cytotoxicity at 24 h” value (MDCK-II cells; 75.00 µM) was 0.0422 and 0.0436 and 0.0425 and 0.0421 (2×) and 0.0419, the TC90 (MDCK-II cells; MTT, 24 h) was “around 100 µM” and the “cytotoxicity (in words)” value (MDCK-II cells; highest concentrations tested) was “Some cytotoxicity”. For the same molecule, the “Percentages of cytotoxicity at 24 h” value (MDCK-II cells; post infection, 0.05 µM) was 24.34% and 25.6% and 18.31%, the “Percentages of cytotoxicity at 24 h” value (MDCK-II cells; post infection, 0.15 µM) was 0.42% and 3.91% and -2.32% and the “Percentages of cytotoxicity at 24 h” value (MDCK-II cells; post infection, 0.46 µM) was -4.5% and 2.6% and -0.24%. For the same molecule, the “Percentages of cytotoxicity at 24 h” value (MDCK-II cells; post infection, 4.17 µM) was -9.11% and -2.72% and -4.09%, the “Percentages of cytotoxicity at 24 h” value (MDCK-II cells; post infection, 12.50 µM) was -9.72% and -3.64% and -7.08% and the “Percentages of cytotoxicity at 24 h” value (MDCK-II cells; post infection, 25.00 µM) was 14.81% and 6.5% and 6.7%. For the same molecule, the “Percentages of cytotoxicity at 24 h” value (MDCK-II cells; post infection, 75.00 µM) was 78.66% (2×) and 78.77%, the “Percentages of cytotoxicity at 24 h” value (MDCK-II cells; with infection, 0.05 µM) was 50.08% and 40.05% and 29.61% and the “Percentages of cytotoxicity at 24 h” value (MDCK-II cells; with infection, 0.15 µM) was 21.35% and 13.49% and 9.34%. The “Percentages of cytotoxicity at 24 h” value (MDCK-II cells; with infection, 0.46 µM) was 22.87% and 14.91% and -6.63%, the “Percentages of cytotoxicity at 24 h” value (MDCK-II cells; with infection, 4.17 µM) was -4.95% and -0.44% and -11.64% and the “Percentages of cytotoxicity at 24 h” value (MDCK-II cells; with infection, 12.50 µM) was 7.26% and -9.36% and -4.24%. For the same molecule, the “Percentages of cytotoxicity at 24 h” value (MDCK-II cells; with infection, 25.00 µM) was 9.08% and 13.19% and 13.44%, the “Percentages of cytotoxicity at 24 h” value (MDCK-II cells; with infection, 75.00 µM) was 78.61% and 77.9% and 78.46% and the “adverse events / severe adverse events” value [6] was “No adverse events or severe adverse events were detected”. For the same molecule, the “tolerability, side effects” value [6] was “tolerable, exhibits no reported side effects and no harm to immune system, with no adverse events”, the “vital signs, physical examinations” value [6] was “no significant differences” and the blood tests ([6]; relative to baseline) was “no significant changes relative to the baseline”. For the same molecule, the EC50 (SARS-CoV2 [3]; 24 h) was 12.5 µM and the CC50 at 24 h (in vitro [7]) was 43.5 µM.

With WTAVQMAVFIHNFKRK [INS-HC1] the “patients recovered completely and negative for SARS-CoV-2 at end of study” value (SARS-CoV-2) was “Four” and the “patients discharged from intensive care unit (ICU) to the general ward with almost full recovery” value (SARS-CoV-2; moderate to severe COVID-19, control group (Atripla only): 14 out of 15 died) was 15 patients.
